Results from patent US20260315564A1, “THE USE OF TP3 (THYMOPENTIN ANALOG) BY INCREASING THE ACTIVITY AND NUMBER OF T-CELLS INVOLVED IN THE DEFENSE MECHANISM OF THE IMMUNE SYSTEM OF MAMMALS, FOR THE PREVENTION OR TREATMENT OF DISEASES TO EXTEND THE AVERAGE LIFESPAN” (priority 2023, published 2026).
Marks after values point to notes of the source that are not given here. Residues, ends and D or L forms follow the SMILES beside them.

System: Anti-BVVT-Ab (IgM)
Assay: Anti-BVVT-Ab titers (IgM) in newborn rats after single treatment (hemagglutination)
Type: in vivo, Hannover Wistar rats (newborn)
Conditions: 1x/ip, n = 12, control 6.3 (TP5), 5.2 (TP3)
Method: Rats (Hannover Wistar) were treated (i.p.) within 6-12 hours after birth. Treatments after birth in a single session or in another examination • on the 7th day after the first treatment; • another group was vaccinated 3 times a week after the first day of […]. treatment • in a subsequent group treated over three weeks (9× in total) (10-3,10-5,10-7//10-9, 10-11,10-12, 10-13 M/animal, i.p). • in the fourth test series, the animals were treated with TP fragments at 0, 1, 2, 4, or 5 days of age. The rats were unanimously immunized on the 14th day after birth (1% BVVT with 0.5 ml cell suspension, i.p.). Immune responses were measured after 7 days on day 21 of the experiment.
Rats (Hannover Wistar) were treated (i.p.) within 6-12 hours after birth. Treatments after birth in a single session or in another examination • on the 7th day after the first treatment; • another group was vaccinated 3 times a week after the first day of treatment. • in a subsequent group, the treatments took place over three weeks (9× in total) (10-3,10-5,10-7//10-9, 10-11,10-12,10-13 M/animal, i.p.). • in the fourth test series, the animals were treated with TP fragments at 0, 1, 2, 4, or 5 days of age. The rats were randomly immunized on the 14th day after birth (1% BVVT with 0.5 ml cell suspension, i.p.). Immune responses were measured after 7 days on day 21 of the experiment. 1.2. Determination of anti-BVVT Ab titers (from rat blood samples ex vivo) • with the haemagglutination method (Takátsy and Fürész, 1955) on 96-well plates (Flow). 50 ul of 0.9% NaCl solution was added to each well. The sera (50 μl) were diluted by half dilution in 12 steps, mixed with 25 pμl 2% BVVT cell suspension, and incubated (1 hour at 37 °C). The hemagglutination titers of the sera are determined. Values expressed in logarithmic values refer to total agglutination.

CC(C)[C@H](NC(=O)[C@H](CC(=O)O)NC(=O)[C@H](CCCCN)NC(=O)[C@@H](N)CCCN=C(N)N)C(=O)N[C@@H](Cc1ccc(O)cc1)C(=O)O [TP5] (H-RKDVY-OH)
Anti-BVVT-Ab titers (IgM) (10^-3 M/animal): 7.6 2 log
Anti-BVVT-Ab titers (IgM) (10^-4 M/animal): 8.1* 2 log
Anti-BVVT-Ab titers (IgM) (10^-5 M/animal): 8.6* 2 log
Anti-BVVT-Ab titers (IgM) (10^-6 M/animal): 8.5* 2 log
Anti-BVVT-Ab titers (IgM) (10^-9 M/animal): 8.0* 2 log
Anti-BVVT-Ab titers (IgM) (10^-11 M/animal): 7.7 2 log
Anti-BVVT-Ab titers (IgM) (10^-13 M/animal): 7.0 2 log
